The subject of experiment [1] is CD11b+ macrophage isolated from peripheral blood. As to the kind of experiment: IL-6 and IL-10 expression (ELISA) in CD11b+ macrophages treated with SP. The settings on record: CD11b+ macrophage in macrophage activation media; SP as Example 1-(1); 4.5, 10, 24 hours; FIG. 3. The format is cell-based, C57b1/6 mice. The procedure: [The procedure below names another cell line; the source says it served here with some conditions changed.] Peripheral blood was collected from C57b1/6 mice (8 weeks, sex; male, n=5, Average Weight; 20 g), diluted doubly with PBS, carefully placed on Ficoll in a tube, and then centrifuged at 2200 rpm for 20 minutes. By centrifuging, from the bottom, an erythrocyte layer, a ficoll layer, a mononuclear cell layer, and a plasma layer were obtained in order. The mononuclear cell layer and plasma layer were isolated, excluding the erythrocyte layer and ficoll layer, and then washed one time with PBS. Then, the number of cells was counted; the cells with a concentration of 1×10^5/0.2 ml were seeded onto T-cell activation media (lymphocyte activation media; RPMI, 10% FBS, 100 μM 2-mercaptoetanol, 20 μg/ml ConA); then the cells were cultured at an incubator of 37° C.; and then culture supernatant was taken at 4.5 hours, 10 hours, and 24 hours. For SP-treated group, 10 nmole/kg of SP dissolved in a physiological saline was treated to T-cell activation media. […] After 30 minutes, 100 μl of stop codon was treated to stop the reaction; the optical density was measured at 450 nm; the amounts of cytokines were converted based on a protein conversion formula by a standard sample; and then the results were shown in FIG. 1. […]

The test system of experiment [2] is IL-10. The experiment in a line: Radiation-irradiating model: anti-inflammatory cytokine IL-10 in blood (ELISA). In kind it is in vivo, C57b1/6 mice. The settings on record: mice, 8 Gy, 5 nmole/kg SP i.v., FIG. 9. The procedure:
5 nmole/kg of SP dissolved in a physiological saline was injected to a tail vein of C57b1/6 mice (8 weeks, sex; male, n=4, Average weight; 20 g) one day before irradiation and immediately after irradiation. The irradiation was performed at 8 Gy radiation in a Gamma lay radiation irradiator (^137Cs, Atomic Energy of Canada, Mississauga, Canada). The mice were sacrificed at 4.5 hours and one day after irradiation, and then the blood was collected. The part of the blood was used for analyzing CBC (Complete Blood Count) and the remaining blood was used to isolate serum and then analyze cytokines
IL-6 and TNFα that are well known as inflammatory cytokines were analyzed. Specific procedures were as follows: Serum samples stored in […] and reagents, controls, and standard proteins stored in a cold storage were taken out at a room temperature. […] After 30 minutes, 100 μl of stop codon was treated to stop the reaction; the optical density was measured at 450 nm; the amounts of cytokines were converted based on a protein conversion formula by a standard sample; and then the result was shown in FIG. 8. […]
IL-10 that is well known as an anti-inflammatory cytokine was analyzed with ELISA (R&D System) by using the same method as Example 2-2.
Background: ELISA stands for enzyme-linked immunosorbent assay.

Where no end group is shown, it is not given here.

“Substance-P (RPKPQQFFGLM; not fully specified; ends and bridges not checked; UniProt P20366 58-68, looked up)”: in experiment [1], the “expression level of IL-6 in culture supernatant” value is “no difference” and the “expression of IL-10 in culture supernatant” value is listed as “increased”. Further, the “amount of IL-10 in blood” value in experiment [2] (4.5 hours after irradiation) is reported as “increased by at least two times”. Also, the “amount of IL-10 in blood” value in experiment [2] (one day after irradiation) is listed as “increased”.

Source of the values: US8575089B2, “Composition for preventing or treating inflammation” (University-Industry Cooperation Group of Kyung Hee, priority 2009, dated 2013).
